Experimental data taken from article PMC9811213, “Glutamine deamidation does not increase the immunogenicity of C-peptide in people with type 1 diabetes” (Journal of Translational Autoimmunity, 2022).

Tests used:
[1] = test system: CD4+ T cells in PBMC from people with recent onset T1D; experiment: CFSE-based proliferation assay, PBMC of people with T1D; assay type: cell-based, human; details: peptide 10 μM; for Cell division index (CDI): CFSE-labelled PBMC
Procedure: (§1) Blood was obtained by venepuncture. Peripheral blood mononuclear cells (PBMC) were isolated over Ficoll-paque (GE Healthcare) and washed twice in phosphate buffered saline (PBS) as described. The CFSE (5,6-carboxyfluorescein diacetate succinimidyl ester) proliferation assays were performed as described previously. CFSE-labelled PBMC were cultured with either: no antigen, full-length C-peptide (^PI33-63), or ^PI33-63 Q38E (referred to as Q6E), ^PI33-63 Q41E (referred to as Q9E), ^PI33-63 Q54E, (referred to as Q22E) ^PI33-63 Q63E (referred to as Q31E), or ^PI33-63 with all glutamines substituted for glutamic acid, (referred to as QallE). See Supplementary Table 5 for a detailed description of the peptides. Each peptide was used at a final concentration of 10 μM. Positive controls were tetanus toxoid (TT 10LfU/ml, Statens Serum Institut) and/or anti-CD3 (OKT3 10 ng/ml). The results are presented as a cell division index (CDI), the ratio of the number of CD4^+ T cells that have proliferated in the presence of antigen to the number of CD4^+ T cells that have proliferated in the absence of antigen.
(§2) Our analysis of CD4^+ Jurkat lines expressing TCRs derived from primary CD4^+ T cells used TCRs derived from CD4^+ T cells that were selected for their specificity for WT C-peptide. […] This may be due to Q to E substitutions being poorly tolerated by the TCRs that were selected based on their recognition of WT C-peptide. To address this, we measured polyclonal CD4^+ T-cell responses in PBMC from people with recent onset type 1 diabetes. (see Supplementary Tables 5 and 6 for details of each subject). […] Next, in a separate cohort we investigated CD4^+ T-cell responses to the five C-peptide variants with individual Q to E substitutions in PBMC of people with recent onset type 1 diabetes (Fig. 3B). We found, as expected, that a majority of PBMC samples responded to WT C-peptide, but responses to Q to E substituted C-peptide variants were not stronger, in fact in most cases they were weaker, than responses to WT C-peptide. (See Supplementary Tables 7–9 for results from individual subjects). Finally, we asked if people without T1D, but who carried the T1D-associated HLA alleles, HLA-DQ2, or HLA-DQ8 had stronger responses to Q to E substituted C-peptide variants (Fig. 3C). Here few subjects had response to WT C-peptide and only a minority had greater responses to Q to E substituted variants of C-peptide, compared to WT C-peptide.
(§3) Fig. 3 PBMC responses to WT and deamidated C-peptide variants. (A) Proliferation in responses, measured as a cell division index (CDI) to WT or QallE C-peptide were compared in 8 PBMC from 8 people with recent onset T1D. Responses from the same individual are linked. […] (B) PBMC proliferation responses to WT and C-peptide variants with individual Q to E substitution and QallE from people with recent onset T1D (B) and HLA matched control subjects who don't have T1D (C). Only difference which reached statistical significance are marked (* = P < 0.05). For responses in subjects without T1D, none of the differences between groups reached statistical significance, p > 0.05, by Wilcoxon matched pairs signed rank test of Log 10 transformed CDI data. Each point is a different individual, bars show the mean and the standard deviation for each group.

[2] = test system: CD4+ T cells in PBMC from subjects without T1D; experiment: CFSE-based proliferation assay, PBMC of subjects without T1D; assay type: cell-based, human; details: CFSE-labelled PBMC, peptide 10 μM, mean CDI
Procedure: as §1, §2, §3

Row | Sequence | Cell division index (CDI) ([1]; T1D donor 9, mean CDI) | Cell division index (CDI) ([1]; T1D donor 10, mean CDI) | Cell division index (CDI) ([1]; T1D donor 11, mean CDI) | Cell division index (CDI) ([1]; T1D donor 12, mean CDI) | Cell division index (CDI) ([1]; T1D donor 13, mean CDI) | Cell division index (CDI) ([1]; T1D donor 14, mean CDI) | Cell division index (CDI) ([1]; T1D donor 15, mean CDI) | Cell division index (CDI) ([1]; T1D donor 16, mean CDI) | Cell division index (CDI) ([1]; T1D donor 17, mean CDI) | Cell division index (CDI) ([1]; T1D donor 18, mean CDI) | Cell division index (CDI) ([2]; donor 1 without T1D) | Cell division index (CDI) ([2]; donor 2 without T1D) | Cell division index (CDI) ([2]; donor 3 without T1D) | Cell division index (CDI) ([2]; donor 4 without T1D) | Cell division index (CDI) ([2]; donor 5 without T1D) | Cell division index (CDI) ([2]; donor 6 without T1D) | further results
1 | EAEDLEVGEVELGGGPGAGSLEPLALEGSLE [QallE, C-peptide with all four glutamines substituted for glutamic acid] | 0.3 | 1.0 | 1.0 | 1.4 | 24.7 | 15.1 | 21.3 | 0.7 | 2.0 | 1.5 | 15.8 | 1.2 | 0.9 | 1.3 | 1.7 | 7.8 | CD4+ T-cell proliferation response compared with WT C-peptide ([1]; PBMC from 8 people with recent onset T1D, Fig. 3A, difference not statistically significant): slightly weaker response; Cell division index (CDI) ([1]; T1D donor 1, mean CDI = proliferated CD4+ T cells with antigen / without antigen): 3.5; Cell division index (CDI) ([1]; T1D donor 2, mean CDI): 8.6; Cell division index (CDI) ([1]; T1D donor 3, mean CDI): 2.1; Cell division index (CDI) ([1]; T1D donor 4, mean CDI): 2.9; Cell division index (CDI) ([1]; T1D donor 5, mean CDI): 4.8; Cell division index (CDI) ([1]; T1D donor 6, mean CDI): 1.5; Cell division index (CDI) ([1]; T1D donor 7, mean CDI): 2.5; Cell division index (CDI) ([1]; T1D donor 8, mean CDI): 15.9
2 | EAEDLQVGEVELGGGPGAGSLQPLALEGSLQ [Q9E, C-peptide variant with glutamine 9 substituted for glutamic acid] | 3.9 | 1.3 | 0.8 | 8.0 | 38.4 | 11.1 | 5.1 | 3.7 | 11.3 | 3.4 | 1.0 | 1.4 | 1.2 | 0.8 | 6.1 | 3.4 | 
3 | EAEDLQVGQVELGGGPGAGSLQPLALEGSLE [Q31E, C-peptide variant with glutamine 31 substituted for glutamic acid] | 0.3 | 2.0 | 0.9 | 3.7 | 11.8 | 3.6 | 6.4 | 1.5 | 7.6 | 1.0 | 1.3 | 1.7 | 3.6 | 0.8 | 22.3 | 1.9 | 
